Experimental data from patent publication US20260293937A1, “SHRIMP FEED AND METHODS OF USE THEREOF” (Organicin Scientific, Inc., priority 2023, published 2026).
Values joined by “and” are separate entries in the source; they are usually repeats but may differ in a detail not shown here. Equal entries are not always repeated. No end group written: not given here.

System: Vibrio parahaemolyticus (strain 13-028A/3)
Test: AHPND immersion challenge, feed-and-survival assay in shrimp
Format: in vivo, Penaeus (Litopenaeus) vannamei
Settings: for Group Survival: positive control 35%; for % Survival: per tank; for Survivors: per tank of 20 shrimp
Protocol: This Example describes the materials, methods, and results of a feed-and-survival assay in shrimp treated with a composition of the disclosure, including the bacteriocin Nisin and shrimp feed.
Specific Pathogen Free (SPF) P. vannamei at an average weight of 1 g to 2 g, were obtained from a commercial shrimp producer and reared. A total of 300 shrimp were transferred into 15 90 L glass aquaria, each aquarium stocked with 20 shrimp.
Shrimp feed diets was prepared at X, 10X, and 100X (0.84 mg/g, 8.4 mg/g, and 84 mg/g Nisin, respectively) estimated concentrations of the bacteriocin Nisin. The bacteriocin additive was combined with a 40% protein commercial shrimp premix (Rangen Inc., Buhl, Idaho), carboxymethyl cellulose at a 3% inclusion rate, and up to 40% w/v water. Exemplary components of a typical 35% protein shrimp diet were wheat flour (35%), soybean meal (20%) and fishmeal (25%). The mixture was then cold-extruded through a meat grinder to produce a 3 mm diameter size pellet strand. The resulting feed strands were dried overnight at 40° C. and broken into appropriately-sized pellets. A total of 100 g of each diet was use for this study. In all three experimental groups a minimum of 9.324 g of Nisin was used to produce the respective feed conditions.
The negative and positive control tanks were fed Rangen's commercially pelleted shrimp diet without additive.
The commercially prepared shrimp diet from juvenile Penaeus (Litopenaeus) vannameia was prepared with a bacteriocin additive at three concentrations (0.84 mg/g, 8.4 mg/g, and 84 mg/g Nisin). Experimental shrimp were orally exposed for […] Vibrio parahaemolyticus, an agent which causes Acute Hepatopancreatic Necrosis Disease (AHPND) to determine if the feed additives (provided during and after exposure) would affect survival when compared to the group that was fed an untreated diet.
All tanks were covered to reduce the risk of mortality due to shrimp jumping out. Each group of tanks was outfitted with its own equipment (e.g., nets and buckets). Each tank contained sufficient aeration and was outfitted with a pre-conditioned biological filter. Water quality tests to characterize temperature, nitrite and total ammonia were performed on tanks weekly.
Nine tanks (three per Nisin concentration) were used to house shrimp that were fed the bacteriocin-containing diet, while three tanks were used to house shrimp fed the control diet without additive. In both cases, the shrimp were fed their respective diet, followed by the AHPND challenge. The challenge was provided on 7 days at 5% of body weight per tank. Three additional tanks were used as a negative control for environmental conditions and were used to house shrimp fed the control diet and not challenged with AHPND. Additionally, the negative control tanks were be fed before the AHPND challenged tanks to reduce the risk of cross contamination.
Each tank scheduled for the AHPND challenge was subjected to an immersion challenge. Tryptic Soy Broth +2% (TSB+) sodium chloride was inoculated with a consistently virulent strain of Vibrio parahaemolyticus (strain 13-028A/3), incubated for 18 hours, and added directly into each challenge tank. The bacterial suspension was added into each tank to achieve the bacterial density measured by optical density absorbance (OD600 nm) at approximately […].
Two animals were preserved in Davidson's AFA fixative prior to the start of the study to document the SPF health status of the population by histology.
All tanks were checked twice a day for dead or moribund animals. During the study, any mortalities were removed from the tank and frozen at −20° C. Up to two moribund animals from each diet group, including the positive control tanks, were preserved in Davidson's AFA fixative and processed for routine histology to confirm an AHPND infection (up to 12 P. vannamei processed for histology during the challenge period). […]

Nisin: Nisin (Immucell; 99% pure) in Example 1; bacteriocin Nisin in shrimp feed at 0.84, 8.4 and 84 mg/g in Example 2 (ITSISLCTPGCKTGALMGCNMKTATCHCSIHVSK; cysteine pairing not given here; also: lantibiotic, modifications not placed; UniProt P13068 24-57, looked up)
cumulative survival vs positive control group (0.84 mg/g Nisin in feed): statistically significant difference in cumulative survival | deaths pre-challenge (0.84 mg/g Nisin in feed): 4 | increase in relative survival of AHPND-challenged shrimp (0.84 mg/g Nisin in feed vs positive controls, statistically significant): 265% | survival of AHPND-challenged shrimp (0.84 mg/g Nisin in feed, pre-challenge deaths excluded, positive controls 35%): 100% | survival rate vs positive controls (8.4 mg/g Nisin in feed): significantly higher than the positive controls | deaths (84 mg/g Nisin in feed): not a single death | survival vs positive controls (84 mg/g Nisin in feed): statistically significant as compared to the positive controls | Mortalities by Day (1X (0.84 mg/g Nisin in feed), day 0, per tank): 0 | Mortalities by Day (1X (0.84 mg/g Nisin in feed), day 2, per tank): 0 | Mortalities by Day (1X (0.84 mg/g Nisin in feed), day 3, per tank): 0 | Mortalities by Day (1X (0.84 mg/g Nisin in feed), day 4, per tank): 0 | Mortalities by Day (1X (0.84 mg/g Nisin in feed), day 5, per tank): 0 | Mortalities by Day (1X (0.84 mg/g Nisin in feed), day 6, per tank): 0 | Mortalities by Day (1X (0.84 mg/g Nisin in feed), day 7, per tank): 0 | Mortalities by Day (1X (0.84 mg/g Nisin in feed), day 8, per tank): 0 | Mortalities by Day (1X (0.84 mg/g Nisin in feed), day 9, per tank): 0 | Mortalities by Day (1X (0.84 mg/g Nisin in feed), day 10, per tank): 0 | Mortalities by Day (1X (0.84 mg/g Nisin in feed), day 11, per tank): 0 | Mortalities by Day (1X (0.84 mg/g Nisin in feed), day 12, per tank): 0 | Mortalities by Day (1X (0.84 mg/g Nisin in feed), day 13, per tank): 0 | Mortalities by Day (1X (0.84 mg/g Nisin in feed), day 14, per tank): 0 | Mortalities by Day (1X (0.84 mg/g Nisin in feed), day 15, per tank): 0 | Mortalities by Day (1X (0.84 mg/g Nisin in feed), day 16, per tank): 0 | Group Survival (1X (0.84 mg/g Nisin in feed), overall): 93% | % Survival (1X (0.84 mg/g Nisin in feed)): 95% and 90% | Survivors (1X (0.84 mg/g Nisin in feed)): 19 and 18 | Mortalities by Day (10X (8.4 mg/g Nisin in feed), day 0, per tank): 0 | Mortalities by Day (10X (8.4 mg/g Nisin in feed), day 1, per tank): 0 | Mortalities by Day (10X (8.4 mg/g Nisin in feed), day 2, per tank): 0 | Mortalities by Day (10X (8.4 mg/g Nisin in feed), day 3, per tank): 0 | Mortalities by Day (10X (8.4 mg/g Nisin in feed), day 4, per tank): 0 | Mortalities by Day (10X (8.4 mg/g Nisin in feed), day 5, per tank): 0 | Mortalities by Day (10X (8.4 mg/g Nisin in feed), day 6, per tank): 0 | Mortalities by Day (10X (8.4 mg/g Nisin in feed), day 7, per tank): 0 | Mortalities by Day (10X (8.4 mg/g Nisin in feed), day 13, per tank): 0 | Mortalities by Day (10X (8.4 mg/g Nisin in feed), day 14, per tank): 0 | Mortalities by Day (10X (8.4 mg/g Nisin in feed), day 15, per tank): 0 | Mortalities by Day (10X (8.4 mg/g Nisin in feed), day 16, per tank): 0 | % Survival (10X (8.4 mg/g Nisin in feed)): 85% and 75% and 45% | Survivors (10X (8.4 mg/g Nisin in feed)): 17 and 15 and 9 | Group Survival (10X (8.4 mg/g Nisin in feed)): 68% | Mortalities by Day (100X (84 mg/g Nisin in feed), day 0, per tank): 0 | Mortalities by Day (100X (84 mg/g Nisin in feed), day 1, per tank): 0 | Mortalities by Day (100X (84 mg/g Nisin in feed), day 2, per tank): 0 | Mortalities by Day (100X (84 mg/g Nisin in feed), day 3, per tank): 0 | Mortalities by Day (100X (84 mg/g Nisin in feed), day 4, per tank): 0 | Mortalities by Day (100X (84 mg/g Nisin in feed), day 5, per tank): 0 | Mortalities by Day (100X (84 mg/g Nisin in feed), day 6, per tank): 0 | Mortalities by Day (100X (84 mg/g Nisin in feed), day 7, per tank): 0 | Mortalities by Day (100X (84 mg/g Nisin in feed), day 8, per tank): 0 | Mortalities by Day (100X (84 mg/g Nisin in feed), day 9, per tank): 0 | Mortalities by Day (100X (84 mg/g Nisin in feed), day 10, per tank): 0 | Mortalities by Day (100X (84 mg/g Nisin in feed), day 11, per tank): 0 | Mortalities by Day (100X (84 mg/g Nisin in feed), day 12, per tank): 0 | Mortalities by Day (100X (84 mg/g Nisin in feed), day 13, per tank): 0 | Mortalities by Day (100X (84 mg/g Nisin in feed), day 14, per tank): 0 | Mortalities by Day (100X (84 mg/g Nisin in feed), day 15, per tank): 0 | Mortalities by Day (100X (84 mg/g Nisin in feed), day 16, per tank): 0 | % Survival (100X (84 mg/g Nisin in feed)): 100% | Survivors (100X (84 mg/g Nisin in feed)): 20 | Group Survival (100X (84 mg/g Nisin in feed)): 100% | shrimp survival (Nisin and shrimp feed, dose as low as 0.84 mg/g): significant increase in shrimp survival
